Reference: patent publication US12297222B2, “CD206 targeted drug delivery vehicles carrying novel bisphosphonate drug payloads via a degradable linker” (Navidea Biopharmaceuticals, Inc., priority 2022, dated 2025)

How the values were obtained:
human macrophages [1] = assay: Human macrophage cell culture assay: viability (DAPI-) by flow cytometry; format: cell-based; conditions: 24 hours treatment, then three days in fresh medium; any tested concentration
Description: GM-CSF induces the macrophages to adopt an activated phenotype that is intermediate between the extremes of M1 or M2. […] The macrophage cell cultures were incubated with the supplemented complete medium for 24 hours after which it was removed and replaced with fresh complete medium. The macrophage cultures were then incubated for an additional three days. The three-day post treatment incubation was performed to permit assessment of durable changes in macrophage phenotypes. […] For each donor's macrophages, all experiments were run in triplicate.

human macrophages [2] = assay: Human macrophage cell culture assay: surface marker expression (MFI) by flow cytometry; format: cell-based
Description: GM-CSF induces the macrophages to adopt an activated phenotype that is intermediate between the extremes of M1 or M2. […] The macrophage cell cultures were incubated with the supplemented complete medium for 24 hours after which it was removed and replaced with fresh complete medium. The macrophage cultures were then incubated for an additional three days. The three-day post treatment incubation was performed to permit assessment of durable changes in macrophage phenotypes.
For each donor's macrophages, all experiments were run in triplicate.

SMILES	cell viability (human macrophages [1])	expression levels of the evaluated surface markers (overall) (human macrophages [2]; FIG. 5, 80 μg of MAD-BIS-1 or equal molar free BIS-1, fold change in MFI vs saline)	changes in macrophage phenotype observed with MAD-BIS-1 (human macrophages [2]; free BIS-1 at any dose)	expression level of the evaluated surface markers (overall) (human macrophages [2]; FIG. 8, free BIS-2)
CC(=O)c1sc(NCC(P(=O)(O)O)P(=O)(O)O)nc1C [BIS-1, 2-(4-methyl-5-acetylthiazole-2-yl-amino)ethylidene 1,1-bisphosphonic acid]	neither MAD-BIS-1 nor free BIS-1 decreased cell viability	very little effect	could not be replicated	
CC(=O)c1cn(CC(C)(P(=O)(O)O)P(=O)(O)O)cn1 [BIS-2, 2-(4-acetylimidazole)ethylidene-1-methyl-1,1-bisphosphonic acid]				did not alter
